Measured values as given in paper PMC10137179, “Assessment of Covalently Binding Warhead Compounds in the Validation of the Cytomegalovirus Nuclear Egress Complex as an Antiviral Target” (Cells, 2023).
Like-named read-outs stand apart in the source and are kept apart here.

Legend:
Type in all cases: cell-based
[1] = target: T1, pUL50–pUL53 interaction (LgBiT::UL53-Flag + SmBiT::UL50-HA) (Human cytomegalovirus, UniProt P16791); conditions: 293T cells, 5×, 1× or 0.2× anti-HCMV EC50 levels, full-length LgBiT::UL53-Flag
T1 construct: expressed in transfected cells; host or cells: 293T

[2] = target: T2, HSV-1 HA-UL34 + Flag-UL31 (Human herpesvirus 1, UniProt P10215+P10218); assay: Confocal imaging of core NEC localization in cotransfected HeLa cells, HSV-1; conditions: 4 µM, 3 d p.t.
T2 construct: expressed in transfected cells; host or cells: HeLa
Protocol: (§1) HFF or HFF-UL50 cells, either Dox-induced or uninduced, were seeded in 6-well plates with a density of 2 × 10^5 cells per well, grown on coverslips and infected with HCMV AD169 or AD169 ∆UL50-ΣUL53. For infection experiments with the recombinant virus, different Shield-1 and Dox conditions were analyzed. Antivirals were added post-infection as described for the experiments. For transfection experiments, HeLa cells were seeded on coverslips in 6-well plates with a density of 3.25 × 10^5 cells per well for cotransfection with the indicated NEC expression plasmids (HSV-1 HA-UL34 + Flag-UL31, HCMV pUL50-HA + pUL53-Flag and EBV HA-BFRF1 + Flag-BFLF2). At indicated time points after virus infection, or 3 days post-transfection, cells were fixed, applied for IF staining as described previously and analyzed using a TCS SP5 confocal laser-scanning microscope with Leica LAS AF software (Leica Microsystems, Wetzlar, Germany). […] The device features a Leica photomultiplier tube (PMT) and a hybrid detector (HyD). Images were further processed using Photoshop CS5 (Adobe Inc., San José, CA, USA). […] Microscopic counting was performed for quantitation of colocalization patterns of two different proteins, as achieved by counting 50 cells per biological triplicate. […]

[3] = target: T3, EBV HA-BFRF1 + Flag-BFLF2 (Epstein-Barr virus, UniProt P03185+P0CK47); assay: Confocal imaging of core NEC localization in cotransfected HeLa cells, EBV; conditions: 4 µM, 3 d p.t.
T3 construct: expressed in transfected cells; host or cells: HeLa
Protocol: as §1

[4] = system: HCMV ∆UL50-ΣUL53; assay: qPCR-based replication assay, HCMV ∆UL50-ΣUL53 in HFF-UL50 cells
Protocol: (§2) The viral genome copy number in cell culture supernatants was determined by IE1-specific quantitative real-time PCR (qPCR) as described previously. […] For the qPCR reactions, aliquots of infected-cell supernatants were incubated with proteinase K (Sigma-Aldrich, St. Louis, MO, USA) at 56 °C for 1 h in order to release the viral DNA. After a denaturation step at 95 °C for 5 min, the DNA samples were optionally stored at 4 °C or directly used for qPCR, as performed in a 25 µL reaction mixture containing 5 µL of either the sample or the standard DNA solution. Additional components of the reaction mixture were 12.5 µL 2× TaqMan PCR Mastermix (Applied Biosystems, Waltham, MA, USA), 7.5 pmol of each primer (5′-[…]-3′) and 5′-[…]-3′) and 5 pmol probe directed against the HCMV MIE region exon 4 (5′-[…]-3′), which was labeled with 6-carboxyfluorescein reporter dye and 6-carboxytetramethylrhodamine quencher dye. The DNA standard for quantification was prepared by serial dilutions of an MIE-inserted plasmid. The thermal cycling conditions consisted of two initial steps of 2 min at 50 °C and 10 min at 95 °C followed by 40 amplification cycles (15 s at 95 °C, 1 min 60 °C). Reactions were performed with an ABI Prism 7700 sequence detector (Applied Biosystems, Waltham, MA, USA).
(§3) To this end, the conditional expression system of the HCMV ΔUL50-ΣUL53 recombinant was applied. […] The relative differences in viral replication efficiencies, under these four chosen conditions, were normalized by two means, namely, by using the same conditions in the DMSO control panel (±S, ±D) and by evaluating viral replication in percentage values (% DMSO).
HFF-UL50 cells were cultivated in 96-well plates and infected with (A,B) HCMV ∆UL50-ΣUL53, with (C) parental HCMV AD169 (WT), using adjusted genome copy numbers, or remained uninfected (mock). Viral input was adjusted to 1 × 10^5 copies per well. […] Dox was refreshed every second day. At 14 d p.i., supernatants were harvested, and viral genome equivalents were determined using HCMV IE1-specific qPCR. Each condition was examined in biological quadruplicates; mean values ± SDs are shown. […] Statistical analysis was performed using ordinary one-way ANOVA and post hoc Tukey testing; **** p ≤ 0.0001; n.s., not significant.

[5] = system: HCMV AD169 (WT); assay: qPCR-based replication assay, parental HCMV AD169 (WT) in HFF-UL50 cells
Protocol: as §2, §3
HFF-UL50 cells were cultivated in 96-well plates and infected with (A,B) HCMV ∆UL50-ΣUL53, with (C) parental HCMV AD169 (WT), using adjusted genome copy numbers, or remained uninfected (mock). Viral input was adjusted to 1 × 10^5 copies per well. […] Dox was refreshed every second day. At 14 d p.i., supernatants were harvested, and viral genome equivalents were determined using HCMV IE1-specific qPCR. […]

T3 sequence (P03185 whole entry): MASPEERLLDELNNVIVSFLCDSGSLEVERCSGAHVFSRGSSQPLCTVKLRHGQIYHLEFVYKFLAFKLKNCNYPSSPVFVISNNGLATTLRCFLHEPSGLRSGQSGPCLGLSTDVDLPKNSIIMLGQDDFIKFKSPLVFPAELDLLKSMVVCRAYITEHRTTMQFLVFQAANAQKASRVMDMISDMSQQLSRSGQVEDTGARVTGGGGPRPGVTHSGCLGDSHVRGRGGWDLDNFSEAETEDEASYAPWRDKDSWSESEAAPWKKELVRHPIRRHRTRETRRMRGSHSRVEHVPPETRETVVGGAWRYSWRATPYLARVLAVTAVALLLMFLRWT
T3 sequence (P0CK47 whole entry): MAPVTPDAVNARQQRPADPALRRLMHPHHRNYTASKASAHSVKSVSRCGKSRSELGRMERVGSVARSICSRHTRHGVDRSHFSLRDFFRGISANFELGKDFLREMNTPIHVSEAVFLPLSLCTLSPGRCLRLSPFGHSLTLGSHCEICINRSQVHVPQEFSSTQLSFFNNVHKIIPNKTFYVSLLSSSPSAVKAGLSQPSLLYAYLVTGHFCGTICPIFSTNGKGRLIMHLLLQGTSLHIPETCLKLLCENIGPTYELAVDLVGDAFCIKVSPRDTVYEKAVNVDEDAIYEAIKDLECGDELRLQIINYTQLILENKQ
T2 sequence (P10215 whole entry): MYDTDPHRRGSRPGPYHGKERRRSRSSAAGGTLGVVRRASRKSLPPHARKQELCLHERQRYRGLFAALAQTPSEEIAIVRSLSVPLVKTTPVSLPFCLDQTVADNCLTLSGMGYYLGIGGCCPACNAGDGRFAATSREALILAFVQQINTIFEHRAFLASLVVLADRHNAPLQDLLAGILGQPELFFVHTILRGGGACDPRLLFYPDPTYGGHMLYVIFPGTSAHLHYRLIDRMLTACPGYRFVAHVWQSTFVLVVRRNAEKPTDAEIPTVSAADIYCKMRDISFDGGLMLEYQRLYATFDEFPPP
T2 sequence (P10218 whole entry): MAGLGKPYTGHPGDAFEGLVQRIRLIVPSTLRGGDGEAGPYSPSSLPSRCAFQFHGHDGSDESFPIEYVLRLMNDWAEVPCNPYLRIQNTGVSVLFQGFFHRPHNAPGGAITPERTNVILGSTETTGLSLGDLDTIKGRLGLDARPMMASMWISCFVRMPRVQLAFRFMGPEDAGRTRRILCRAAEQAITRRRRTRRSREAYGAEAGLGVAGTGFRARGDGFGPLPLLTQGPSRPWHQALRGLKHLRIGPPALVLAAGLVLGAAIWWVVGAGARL
T1 sequence (P16791 whole entry): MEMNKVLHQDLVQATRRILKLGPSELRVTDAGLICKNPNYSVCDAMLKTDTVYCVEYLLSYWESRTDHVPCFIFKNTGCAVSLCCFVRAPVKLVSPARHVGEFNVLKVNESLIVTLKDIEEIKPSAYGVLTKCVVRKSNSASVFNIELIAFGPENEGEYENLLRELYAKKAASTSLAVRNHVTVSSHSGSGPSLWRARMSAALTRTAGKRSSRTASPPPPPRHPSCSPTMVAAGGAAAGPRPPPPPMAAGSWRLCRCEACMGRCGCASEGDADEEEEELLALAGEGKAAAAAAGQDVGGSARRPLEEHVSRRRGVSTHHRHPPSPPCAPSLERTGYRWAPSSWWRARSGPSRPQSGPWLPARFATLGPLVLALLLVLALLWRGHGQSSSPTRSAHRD

SMILES: C=CC(=O)N1CCC[C@@H](n2nc(-c3ccc(Oc4ccccc4)cc3)c3c(N)ncnc32)C1 [ibrutinib]
- inhibitory effect on NanoBiT interaction signal (in words) [1]: most prominent, dose-dependent reduction in the measured interaction signal
- core NEC nuclear rim localization (in words) [2]: did not show any similar alteration in nuclear rim localization
- core NEC nuclear rim localization (in words) [3]: did not show any similar alteration in nuclear rim localization
- EC50 ([4]; +S+D (Shield-1 1 µM, Dox 500 ng/mL), 14 d p.i., qPCR, two biological replicates): 4.8 ± 11.1 µM
- EC50 ([4]; Human betaherpesvirus 5, 336 h, +S+D (Shield-1 1 µM, Dox 500 ng/mL), 14 d p.i., qPCR, two biological replicates): 4 ± 3.6 µM
- EC50 ([4]; Human betaherpesvirus 5, 336 h, +S-D (no pUL50 induction), 14 d p.i., qPCR): > 32 µM
- EC50 ([4]; Human betaherpesvirus 5, 336 h, -S+D (no pUL53 stabilization), 14 d p.i., qPCR): > 32 µM
- EC50 ([4]; Human betaherpesvirus 5, 336 h, -S-D (neither core NEC protein), 14 d p.i., qPCR, two replicates): > 32 µM
- EC50 ([4]; Human betaherpesvirus 5, read-out: mean EC50, ∆UL50-ΣUL53, +S+D, mean of replicates): 4.4 µM
- EC50 ([5]; Human betaherpesvirus 5, AD169, 336 h, AD169 WT, +S+D, 14 d p.i., qPCR, read-out: EC50): 2.3 ± 1.8 µM
- EC50 ([5]; Human betaherpesvirus 5, AD169, 336 h, AD169 WT, -S-D, 14 d p.i., qPCR, read-out: EC50): 2.5 ± 2.8 µM
- EC50 ([5]; Human betaherpesvirus 5, AD169, parental HCMV AD169, qPCR-based assays, mean, read-out: mean EC50): 2.4 µM
